The values that follow come from patent publication US5709816A, “Singlet oxygen quenchers and external compositions containing the same” (Kao Corporation, priority 1899, dated 1998).

Test [1] concerns skin of hairless mice. In words: Analysis of wrinkles in hairless mice (image analysis of skin replicas). The class given is in vivo, hairless mouse (HR/ICR). Conditions: 5 wt. % in ethanol, 80 μl; UV-B sixteen weeks; shadow area of skin replicas, 30°; control (ethanol) 6.46 ± 0.68. As to the method:
(§1) To each hairless mouse (HR/ICR, 6 weeks old when the test started), a test substance (5 wt. %, in ethanol) was applied. (80 μl). Approximately 10 minutes later, UV-B was irradiated thereto using 6 bulbs of health lamps (SL20-SLE, Toshiba) so that the dose per irradiation was not greater than 1 MED. Irradiation was repeated five times per week over sixteen weeks. While the irradiation energy was measured using a UV-radiometer (UVR-305/S65D, Tokyo Optical K.K.) so that the dose per irradiation was not greater than 1 MED, energy was irradiated at an intensity of 0.28 mW/cm^2, with the total dose. 100 mJ/cm^2. As a control, a case where only ethanol was applied was similarly tested in a manner performed on the test substances.
In order to analyze the wrinkles formed in the above step (1) in detail, replicas of different skin areas (3 replicas per mouse) each having a round shape with a diameter of 1 cm were obtained using a hydrophilic exaflex, hydrophilic vinyl silicone imaging agent. Each replica was placed horizontally and lightened from an angle of 30°. The area of shadows formed by wrinkles was analyzed as the area ratio using an image analyzing apparatus.

The test system of test [2] is skin of hairless mice. In words: Inhibition of wrinkle formation in hairless mice (visual wrinkle index). The test is classed as in vivo, hairless mouse (HR/ICR). Conditions: 5 wt. % in ethanol, 80 μl; UV-B five times per week, sixteen weeks; scale 1 (no wrinkles) to 4; control (ethanol) 3.78 ± 0.08. As to the method:
(1) Inhibition of wrinkle formation in hairless mice.
as §1
After completion of the testing, the level of wrinkle formation was visually determined using the following standards (wrinkle indices).
1: No wrinkles are formed
2: Small amounts of wrinkles are formed
3: Moderate amounts of wrinkles are formed
4: Considerable amounts of wrinkles are formed

As to `CCCCC(CC)CN(Cc1ccco1)Cc1ccco1` (stereo not shown) [Compound (23), N,N-bisfurfuryl-2-ethylhexylamine], in the test with skin of hairless mice [1], the “Area ratio of image analysis” value was found to be 3.23 ± 0.18%. Besides, the Wrinkle index with skin of hairless mice [2] is recorded as 2.17 ± 0.05.
For `Cc1ccc(CN(Cc2ccc(C)o2)c2ccccc2C)o1` [Compound (30), N,N-bis(5-methylfurfuryl)-2-methylphenylamine] the same measures were 3.39 ± 0.47% and 2.51 ± 0.43.
For `CCOC(=O)CN(Cc1ccco1)Cc1ccco1` [Compound (24), ethyl N,N-bisfurfurylglycine] the same measures were 3.27 ± 0.29% and 2.56 ± 0.08.
For the molecule `Cc1ccc(N(Cc2ccc(C)o2)Cc2ccc(C)o2)cc1` [Compound (29), N,N-bis(5-methylfurfuyl)-4-methylphenylamine], the “Area ratio of image analysis” value with skin of hairless mice [1] stood at 3.64 ± 0.12%. This molecule also had a Wrinkle index in the test with skin of hairless mice [2] of 2.28 ± 0.06.
As to `COc1cc(N(Cc2ccc(C)o2)Cc2ccc(C)o2)cc(OC)c1OC` [Compound (28), N,N-bis(5-methylfurfuryl)-3,4,5-trimethoxyphenylamine], the “Area ratio of image analysis” value in the test on skin of hairless mice [1] amounted to 3.24 ± 0.33%. This molecule came in with a Wrinkle index in the test with skin of hairless mice [2] of 2.43 ± 0.06.
With `COc1ccc(N(Cc2ccc(C)o2)Cc2ccc(C)o2)cc1` [Compound (26), N,N-bis(5-methylfurfuryl)-p-methoxyphenylamine], the “Area ratio of image analysis” value in the test on skin of hairless mice [1] worked out at 3.69 ± 0.59%. In addition, the Wrinkle index with skin of hairless mice [2] was determined as 2.44 ± 0.33.
As to `COc1ccc(N(Cc2ccco2)Cc2ccc(C)o2)cc1` [Compound (31), N-furfuryl-N-(S-methylfurfuryl)-4-methoxyphenylamine], in the test with skin of hairless mice [1], the “Area ratio of image analysis” value was determined as 3.30 ± 0.17%. In addition, in the test on skin of hairless mice [2], the Wrinkle index came out at 2.49 ± 0.20.
`COc1ccc(N(Cc2ccc(C)o2)Cc2ccc(C)o2)cc1OC` [Compound (27), N,N-bis(5-methylfurfuryl)-3,4-dimethoxyphenylamine]: the “Area ratio of image analysis” value with skin of hairless mice [1] amounted to 3.73 ± 0.29%. In addition, the Wrinkle index in the test with skin of hairless mice [2] was 2.22 ± 0.17.
The corresponding values for `CCCCN(Cc1ccco1)Cc1ccco1` [Compound (22), N,N-bisfurfurylbutylamine] are 3.37 ± 0.30% and 2.34 ± 0.16.
The corresponding values for `Cc1ccc(CN(Cc2ccc(C)o2)c2ccccc2)o1` [Compound (25), N,N-bis(5-methylfurfuryl)phenylamine] are 3.32 ± 0.21% and 2.35 ± 0.34.
For `CC(=O)Oc1c(C)c(C)c2c(c1C)CCC(C)(CCCC(C)CCCC(C)CCCC(C)C)O2` (stereo not drawn) [α-Tocopheryl acetate, reference compound] the same measures were 4.67 ± 0.48% and 3.28 ± 0.23.
